Results reported in ChEMBL document CHEMBL3885881, “DrugMatrix”.

Organism: Rattus norvegicus
Assay: DrugMatrix - Regimen: Daily Repeat
Assay type: toxicity, organism-based, Sprague-Dawley
Set-up: regimen Daily Repeat, gender Male, age 6-8 weeks
Conditions: in vivo, po, route oral GAVAGE, vehicle 100 % WATER; for ABSOLUTE BASOPHIL / ABSOLUTE EOSINOPHIL / ABSOLUTE LYMPHOCYTE / ABSOLUTE MONOCYTE / ABSOLUTE SEGMENTED NEUTROPHIL / BASOPHIL / EOSINOPHIL / ERYTHROCYTE COUNT / HEMATOCRIT / HEMOGLOBIN / LEUKOCYTE COUNT / LYMPHOCYTE / MEAN CORPUSCULAR HEMOGLOBIN / MEAN CORPUSCULAR HEMOGLOBIN CONCENTRATION / MEAN CORPUSCULAR VOLUME / MONOCYTE / NEUTROPHIL / NUCLEATED RED BLOOD CELLS / PLATELET COUNT: tissue Blood; for ALANINE AMINOTRANSFERASE / ALBUMIN / ALKALINE PHOSPHATASE / ASPARTATE AMINOTRANSFERASE / BLOOD UREA NITROGEN / CARBON DIOXIDE / CHLORIDE / CHOLESTEROL / CREATINE PHOSPHOKINASE / CREATININE / GLUCOSE / LACTATE DEHYDROGENASE / LIPASE / PHOSPHORUS / POTASSIUM / SODIUM / TOTAL BILIRUBIN / TOTAL PROTEIN / URIC ACID: tissue Plasma
[1] = 58 mg/kg, 120 h, dose level Low, time 5 day
[2] = 1400 mg/kg, 72 h, dose level High, time 3 day
[3] = 1400 mg/kg, 120 h, dose level High, time 5 day

## Cc1cn([C@H]2C=C[C@@H](CO)O2)c(=O)[nH]c1=O [STAVUDINE]
[1]
  ABSOLUTE BASOPHIL: 0 CELLS/uL
  ABSOLUTE EOSINOPHIL: 94.33 CELLS/uL
  ABSOLUTE LYMPHOCYTE: 9260.33 CELLS/uL
  ABSOLUTE MONOCYTE: 0 CELLS/uL
  ABSOLUTE SEGMENTED NEUTROPHIL: 878.67 CELLS/uL
  BASOPHIL: 0%
  EOSINOPHIL: 1%
  ERYTHROCYTE COUNT: 5.68 x10E6/uL
  HEMATOCRIT: 35.3%
  HEMOGLOBIN: 13.67 G/DL
  LEUKOCYTE COUNT: 10.23 x10E3/uL
  LYMPHOCYTE: 90%
  MEAN CORPUSCULAR HEMOGLOBIN: 24.17 pg
  MEAN CORPUSCULAR HEMOGLOBIN CONCENTRATION: 38.73 G/DL
  MEAN CORPUSCULAR VOLUME: 62.33 fL
  MONOCYTE: 0%
  NEUTROPHIL: 9%
  NUCLEATED RED BLOOD CELLS: 0.33 /100WBC
  PLATELET COUNT: 999.33 x10E3/uL
  ALANINE AMINOTRANSFERASE: 49 u/L
  ALBUMIN: 4.1 G/DL
  ALKALINE PHOSPHATASE: 425 u/L
  ASPARTATE AMINOTRANSFERASE: 86.33 u/L
  BLOOD UREA NITROGEN: 14.33 mg/dL
  CARBON DIOXIDE: 28.33 mmol/L
  CHLORIDE: 104 MEQ/L
  CHOLESTEROL: 72.33 mg/dL
  CREATINE PHOSPHOKINASE: 506.33 u/L
  CREATININE: 0.15 mg/dL
  GLUCOSE: 173.33 mg/dL
  LACTATE DEHYDROGENASE: 155.33 u/L
  LIPASE: 8.67 u/L
  PHOSPHORUS: 11.87 mg/dL
  POTASSIUM: 5.3 MEQ/L
  SODIUM: 146.7 MEQ/L
  TOTAL BILIRUBIN: 0.17 mg/dL
  TOTAL PROTEIN: 6.03 G/DL
  URIC ACID: 0.67 mg/dL
[2]
  ABSOLUTE BASOPHIL: 0 CELLS/uL
  ABSOLUTE EOSINOPHIL: 0 CELLS/uL
  ABSOLUTE LYMPHOCYTE: 15246 CELLS/uL
  ABSOLUTE MONOCYTE: 148.33 CELLS/uL
  ABSOLUTE SEGMENTED NEUTROPHIL: 1072.33 CELLS/uL
  BASOPHIL: 0%
  EOSINOPHIL: 0%
  ERYTHROCYTE COUNT: 5.98 x10E6/uL
  HEMATOCRIT: 37.4%
  HEMOGLOBIN: 14.87 G/DL
  LEUKOCYTE COUNT: 16.47 x10E3/uL
  LYMPHOCYTE: 92.67%
  MEAN CORPUSCULAR HEMOGLOBIN: 24.9 pg
  MEAN CORPUSCULAR HEMOGLOBIN CONCENTRATION: 39.77 G/DL
  MEAN CORPUSCULAR VOLUME: 62.67 fL
  MONOCYTE: 1%
  NEUTROPHIL: 6.33%
  NUCLEATED RED BLOOD CELLS: 0 /100WBC
  PLATELET COUNT: 998.33 x10E3/uL
  ALANINE AMINOTRANSFERASE: 113.67 u/L
  ALBUMIN: 3.93 G/DL
  ALKALINE PHOSPHATASE: 510.67 u/L
  ASPARTATE AMINOTRANSFERASE: 191 u/L
  BLOOD UREA NITROGEN: 12.33 mg/dL
  CARBON DIOXIDE: 27 mmol/L
  CHLORIDE: 100.67 MEQ/L
  CHOLESTEROL: 97.33 mg/dL
  CREATINE PHOSPHOKINASE: 237.67 u/L
  CREATININE: 0.15 mg/dL
  GLUCOSE: 155 mg/dL
  LACTATE DEHYDROGENASE: 355 u/L
  LIPASE: 11.33 u/L
  PHOSPHORUS: 12.77 mg/dL
  POTASSIUM: 6.93 MEQ/L
  SODIUM: 142.73 MEQ/L
  TOTAL BILIRUBIN: 0.23 mg/dL
  TOTAL PROTEIN: 5.63 G/DL
  URIC ACID: 1.47 mg/dL
[3]
  ABSOLUTE BASOPHIL: 0 CELLS/uL
  ABSOLUTE EOSINOPHIL: 247.33 CELLS/uL
  ABSOLUTE LYMPHOCYTE: 16216.67 CELLS/uL
  ABSOLUTE MONOCYTE: 311.33 CELLS/uL
  ABSOLUTE SEGMENTED NEUTROPHIL: 2358 CELLS/uL
  BASOPHIL: 0%
  EOSINOPHIL: 1.33%
  ERYTHROCYTE COUNT: 5.64 x10E6/uL
  HEMATOCRIT: 35.57%
  HEMOGLOBIN: 13.87 G/DL
  LEUKOCYTE COUNT: 19.13 x10E3/uL
  LYMPHOCYTE: 84.67%
  MEAN CORPUSCULAR HEMOGLOBIN: 24.6 pg
  MEAN CORPUSCULAR HEMOGLOBIN CONCENTRATION: 39 G/DL
  MEAN CORPUSCULAR VOLUME: 63.1 fL
  MONOCYTE: 1.67%
  NEUTROPHIL: 12.33%
  NUCLEATED RED BLOOD CELLS: 0 /100WBC
  PLATELET COUNT: 1296.67 x10E3/uL
  ALANINE AMINOTRANSFERASE: 50.33 u/L
  ALBUMIN: 4.17 G/DL
  ALKALINE PHOSPHATASE: 429.33 u/L
  ASPARTATE AMINOTRANSFERASE: 75 u/L
  BLOOD UREA NITROGEN: 14.67 mg/dL
  CARBON DIOXIDE: 23 mmol/L
  CHLORIDE: 102 MEQ/L
  CHOLESTEROL: 81.67 mg/dL
  CREATINE PHOSPHOKINASE: 207 u/L
  CREATININE: 0.21 mg/dL
  GLUCOSE: 162 mg/dL
  LACTATE DEHYDROGENASE: 128.33 u/L
  LIPASE: 11.67 u/L
  PHOSPHORUS: 11 mg/dL
  POTASSIUM: 5.59 MEQ/L
  SODIUM: 145 MEQ/L
  TOTAL BILIRUBIN: 0.2 mg/dL
  TOTAL PROTEIN: 5.8 G/DL
  URIC ACID: 1.77 mg/dL
